Measurements as given in patent publication US20250333509A1, “METHODS FOR TREATING CANCER, OR VON-HIPPEL LINDAU DISEASE USING A COMBINATION OF A TIGIT ANTAGONIST, A PD-1 ANTAGONIST, AND A HIF-2-ALPHA INHIBITOR” (MERCK SHARP & DOHME LLC, priority 2022, published 2025).

Assays:
[1] = tested on: RCC associated with VHL disease, CNS hemangioblastomas, pancreatic neuroendocrine tumors; details: cited from earlier work
CT26 tumors = assay: CT26 mouse syngeneic tumor model: tumor growth inhibition and tumor regressions; format: in vivo; details: CT26 tumors in female BALB/cAnn mice, 10 per group, anti-PD-1 5 mg/kg ip every 5 days, anti-TIGIT 10 mg/kg ip every 5 days, belzutifan 3 mg/kg orally twice daily; for Tumor growth inhibition (TGI) % at Day 16: Day 16 when control animals exited study; for Number of complete tumor regressions (CRs) at end of study / Number of partial tumor regressions (PRs) at end of study: end of study (Day 43)
From the text: The present Example describes preclinical data using a TIGIT antagonist and a PD-1 antagonist in combination with belzutifan, using mouse syngeneic models.
Prior to treatment initiation, female BALB/cAnn mice aged 7 weeks weighing between 18 to 21 grams were anesthetized and injected subcutaneously into the rear flank with 0.3×10^6 log-phase sub-confluent CT26 cells. Mice were pair-matched into treatment groups consisting of 10 mice per group when the mean tumor volume of inoculated CT26 tumors reached approximately 150 mm^3.
Treatment groups consisted of: • 1) Isotype mouse IgG1 (mIgG1) antibody+Isotype mouse IgG2a (mIgG2a) antibody+0.5% methylcellulose (vehicle); • 2) anti-PD-1 mIgG1 antibody+Isotype mIgG2a antibody+vehicle; • 3) anti-TIGIT mIgG2a antibody+Isotype mIgG1 antibody+vehicle; • 4) Isotype mIgG1 antibody+Isotype mIgG2a antibody+belzutifan; • 5) anti-PD-1 mIgG1 antibody+anti-TIGIT mIgG2a antibody+vehicle; • 6) anti-PD-1 mIgG1 antibody+Isotype mIgG2a antibody+belzutifan; • 7) Isotype mIgG1 antibody+anti-TIGIT mIgG2a antibody+belzutifan; and • 8) anti-PD-1 mIgG1 antibody+anti-TIGIT mIgG2a antibody+belzutifan.
Isotype mIgG1 and anti-PD-1 antibodies were dosed intraperitoneally every 5 days at 5 mg/kg body weight. Isotype mIgG2a and anti-TIGIT antibodies were dosed intraperitoneally every 5 days at 10 mg/kg body weight. Belzutifan was dosed orally twice daily at 3 mg/kg body weight. Start of treatments was considered Day 0 and dosing based on schedules continued as described until Day 43. Caliper measurements of tumors and body weights were captured twice weekly. Statistical analyses were performed by 2-sided student t-test of final 2 groups at Day 43 when study ended.

[2] = AE profile of belzutifan; cited from earlier work
[3] = patients with RCC associated with VHL disease who received belzutifan

Q: Which “patients with a response after treatment” value ([1]; patients with CNS hemangioblastomas) does the source give for `CS(=O)(=O)c1ccc(Oc2cc(F)cc(C#N)c2)c2c1[C@H](O)[C@H](F)[C@@H]2F` [belzutifan, 3-[(1S,2S,3R)-2,3-Difluoro-1-hydroxy-7-methylsulfonyl-indan-4-yl]oxy-5-fluoro-benzonitrile] here?
A: The value was 30%.

Q: What about the “patients with a confirmed objective response” value [1, 3] of the same molecule?
A: The value was 49%.

Q: And the “reduction in renal tumor size” value [1, 3]?
A: The value was “most patients had a reduction in renal tumor size”.

Q: And the “patients who responded after treatment” value ([1]; patients with pancreatic neuroendocrine tumors)?
A: Its value is 91%.

Q: What about the “Tumor growth inhibition (TGI) % at Day 16” value (CT26 tumors) of the same molecule?
A: Its value is 5.8%.

Q: What about the “Number of complete tumor regressions (CRs) at end of study” value (“Number of complete tumor regressions” for short) (CT26 tumors) of the same molecule?
A: The value was 0 CRs, 0 PRs.

Q: What about the “Number of partial tumor regressions (PRs) at end of study” value (“Number of partial tumor regressions” for short) (CT26 tumors) of the same molecule?
A: The value was 0 CRs, 0 PRs.

Q: What about the “adverse events associated with treatment” value [2] of the same molecule?
A: Its value is “anemia and hypoxia have been associated with belzutifan treatment”.

B1: Anti-PD-1 (antibody)
heavy: EVQLVESGGGLVQPGGSLKLSCAASGFTFSNSGLAWVRQAPEKGLEWVATITYNGTSTYYRDSVKGRFTISRDNAKNTLYLQMSSLRSEDTATYYCARWVPGSGNFDYWGQGTLVTVSSAKTTPPSVYPLAPGSAAQTNSMVTLGCLVKGYFPEPVTVTWNSGSLSSGVHTFPAVLQSDLYTLSSSVTVPSSTWPSETVTCNVAHPASSTKVDKKIVPRDCGCKPCICTVPEVSSVFIFPPKPKDVLTITLTPKVTCVVVAISKDDPEVQFSWFVDDVEVHTAQTQPREEQFNSTFRSVSELPIMHQDWLNGKEFKCRVNSAAFPAPIEKTISKTKGRPKAPQVYTIPPPKEQMAKDKVSLTCMITDFFPEDITVEWQWNGQPAENYKNTQPIMDTDGSYFVYSKLNVQKSNWEAGNTFTCSVLHEGLHNHHTEKSLSHSPGK
light: DIVLTQSPASLAVSLGQRATISCRASQSVTISRYTLMHWYQQKPGQPPKLLIYRASNLASGIPARFSGSGSGTDFTLNIHPVEEDDAATYYCQQSRESPWTFGGGTKLEIKRADAAPTVSIFPPSSEQLTSGGASVVCFLNNFYPKDINVKWKIDGSERQNGVLNSWTDQDSKDSTYSMSSTLTLTKDEYERHNSYTCEATHKTSTSPIVKSFNRNEC
Q: For B1, which “Tumor growth inhibition (TGI) % at Day 16” value (CT26 tumors) is on record?
A: The value was 4.8%.

Q: And the “Number of complete tumor regressions” value (CT26 tumors)?
A: Its value is 0.

Q: What about the “Number of partial tumor regressions” value (CT26 tumors) of the same molecule?
A: The value was 1.

B2: Anti-TIGIT (antibody)
heavy: QVQLMESGPGLVQPSQTLSLTCTVSGFPLTSYTVHWVRQPPGKGLEWIGAIWSSGSTDYNSALKSRLNINRDSSKSQVFLKMNSLQTEDTAIYFCTKSGWAFFDYWGQGVMVTVSSAKTTAPSVYPLAPVCGDTTGSSVTLGCLVKGYFPEPVTLTWNSGSLSSGVHTFPAVLQSDLYTLSSSVTVTSSTWPSQSITCNVAHPASSTKVDKKIEPRGPTIKPCPPCKCPAPNLLGGPSVFIFPPKIKDVLMISLSPIVTCVVVDVSEDDPDVQISWFVNNVEVHTAQTQTHREDYNSTLRVVSALPIQHQDWMSGKEFKCKVNNKDLPAPIERTISKPKGSVRAPQVYVLPPPEEEMTKKQVTLTCMVTDFMPEDIYVEWTNNGKTELNYKNTEPVLDSDGSYFMYSKLRVEKKNWVERNSYSCSVVHEGLHNHHTTKSFSRTPGK
light: DIQMTQSPSLLSASVGDRVTLNCIASQNIYKSLAWYQLKLGEAPKLLIYNANSLQAGIPSRFSGSGSGTDFALTISGLQPEDVATYFCQQYSGGYTFGAGTKLELKRADAAPTVSIFPPSSEQLTSGGASVVCFLNNFYPKDINVKWKIDGSERQNGVLNSWTDQDSKDSTYSMSSTLTLTKDEYERHNSYTCEATHKTSTSPIVKSFNRNEC
Q: For B2, which “Tumor growth inhibition (TGI) % at Day 16” value (CT26 tumors) is on record?
A: Its value is 47.4%.

Q: And the “Number of complete tumor regressions” value (CT26 tumors)?
A: Its value is 0 CRs, 0 PRs.

Q: And the “Number of partial tumor regressions” value (CT26 tumors)?
A: The value was 0 CRs, 0 PRs.
